# Data as given in US12570666B2, “Furoindazole derivatives” (Bayer Aktiengesellschaft, priority 2019, dated 2026).
# Target: T1, human GPR84 receptor (Homo sapiens, UniProt Q9NQS5)
# T1 construct: frozen aliquots prepared by acCELLerate; host or cells: CHO-K1
# Assay: cAMP HTRF assay for identification of cellular GPR84 antagonists
# Type: cell-based
# Conditions: CHO-K1 cells stably expressing human GPR84; Forskolin + agonist 6-OAU (EC80); average or median values
# From the text: cAMP HTRF® Assay for Identification of Cellular GPR84 Antagonists
# By using a Homogenous Time-Resolved Fluorescence (HTRF®) based assay (#62AM5PEJ, Cisbio, Condolet, France) the inhibition of the Gi-coupled GPR84 receptor can be detected. CHO-K1 cells stably expressing human GPR84 receptor (purchased from DiscoveRx, now Eurofins) were used and treated with Forskolin (F6886, Sigma, Germany) to stimulate membrane adenylyl cyclases and thereby unspecific cAMP formation. Activation of the Gi-coupled GPR84 by a natural or small molecule agonist (e.g. 6-n-octyl aminouracile, inhouse) results in inhibition of cellular cAMP formation which can be released again by antagonists to this receptor. Detection and quantification of cellular cAMP levels in this HTRF assay is achieved by interaction between a fluorescent cAMP tracer (cAMP-d2) and an Eu-cryptate labelled anti-cAMP antibody. Following excitation at 337 nm this pairing allows for the generation of a fluorescence resonance energy transfer (FRET) between the partners and results in FRET induced emissions at 665 nm and 620 nm, the latter representing background signal by Eu-cryptate labelled anti-cAMP antibody. Maximal signal is obtained in the absence of any cellular cAMP (no competition for the binding of the tracer to the antibody). Given the combination of the Gi coupling properties of GPR84 and the competitive nature of the detection system agonist treatment should result in an increase in the HTRF signal due to lowered cAMP levels. Any signal decrease in the presence of Forskolin, agonist and compound is indicative of antagonist mediated abrogation of GPR84 signalling.
# For the assay, frozen aliquots of CHO-K1 cells expressing hGPR84 (prepared by acCELLerate, Hamburg, Germany) were thawed and a cell suspension (1.67E+06 cells/mL) in assay media (Ham's F12 Nutrient Mix, Thermo Fisher Scientific, Waltham, USA; 5% fetal calf serum, Biomol, Hamburg, Germany) containing cAMP-d2 (dilution 1:20, supplied with the kit #62AM5PEJ, Cisbio, Condolet, France) was prepared. After recovery of cells for 20 minutes at 37° C., 3 μL/well cell suspension including cAMP-d2 were added to a pre-dispensed assay plate (Greiner Bio-One, Kremsmuenster, Austria) containing 50 nl/well test compound in 100% DMSO or 100% DMSO as control. This was followed by a 30 minutes incubation step at room temperature. […] The reaction was stopped by addition of 3 μL/well lysis buffer containing cAMP Eu-Cryptate antibody (dilution 1:20) (both supplied with the kit #62AM5PEJ, Cisbio, Condolet, France). To enable complete lysis, plates were incubated for 60 minutes at room temperature before measurement in an HTRF reader, e.g. a PHERAstar (BMG Labtech, Ortenberg, Germany).
# From the fluorescence emissions at 665 nm (FRET) and at 620 nm (background signal of Eu-cryptate) the ratio (emission at 665 nm divided by emission at 620 nm×10000) was calculated and the data were normalized (reaction without test compound, only 100% DMSO=0% inhibition; all other assay components except agonist=100% inhibition). For dose response testing on the same microtiter plate, compounds were tested at 11 different concentrations in the range of 20 μM to 0.07 nM (20 μM, 5.7 μM, 1.6 μM, 0.47 μM, 0.13 μM, 38 nM, 11 nM, 3.1 nM, 0.89 nM, 0.25 and 0.07 nM; dilution series prepared before the assay at the level of the 100-fold conc. stock solutions by serial 1:3.5 dilutions in 100% DMSO) in duplicate values for each concentration. IC50 values were calculated by 4-parameter fitting using a commercial software package (Genedata Screener, Basel, Switzerland).
# Examples were tested in selected biological assays one or more times. […]
# T1 sequence (Q9NQS5 whole entry): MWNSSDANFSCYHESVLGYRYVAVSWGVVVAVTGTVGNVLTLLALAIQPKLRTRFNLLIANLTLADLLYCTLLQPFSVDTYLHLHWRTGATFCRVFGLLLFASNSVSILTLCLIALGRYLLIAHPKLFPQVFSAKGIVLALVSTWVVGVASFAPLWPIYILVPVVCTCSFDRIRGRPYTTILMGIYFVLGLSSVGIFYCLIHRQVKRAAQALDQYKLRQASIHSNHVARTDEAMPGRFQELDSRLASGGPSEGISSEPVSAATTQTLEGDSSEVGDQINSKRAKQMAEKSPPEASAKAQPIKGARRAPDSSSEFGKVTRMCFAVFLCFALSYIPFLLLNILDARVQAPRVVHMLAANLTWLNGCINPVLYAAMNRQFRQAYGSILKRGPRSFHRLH
row,Compound,IC50 [nM]
1,"C[C@@H]1Cc2oc(C(=O)NC[C@@H]3CCCO3)c(C(F)(F)F)c2-c2nn(CC3CCN(C(=O)C4(C)CC4)CC3)cc21 (single isomer, unassigned) [Example 298, (4R or 4S)-4-methyl-2-{[1-(1-methylcyclopropane-1-carbonyl)piperidin-4-yl]methyl}-N-{[(2S)-oxolan-2-yl]methyl}-8-(trifluoromethyl)-4,5-dihydro-2H-furo[2,3-g]indazole-7-carboxamide]",9
2,Cc1c(C(=O)NC[C@@H]2CCCO2)oc2c1-c1nn(Cc3cccnn3)cc1CC2 [Example 184],447
3,"Cc1cnc(CNC(=O)c2oc3c(c2C(F)(F)F)-c2nn(C[C@H]4COCCO4)cc2[C@H](C)C3)cn1 (single isomer, unassigned) [Example 258, (4R or 4S)-2-{[(2S)-1,4-dioxan-2-yl]methyl}-4-methyl-N-[(5-methylpyrazin-2-yl)methyl]-8-(trifluoromethyl)-4,5-dihydro-2H-furo[2,3-g]indazole-7-carboxamide]",5
4,"O=C(NCc1ncco1)c1oc2c(c1C1CC1)-c1nn(Cc3ccccn3)cc1CC2 [Example 122, 8-cyclopropyl-N-(1,3-oxazol-2-ylmethyl)-2-(pyridin-2-ylmethyl)-4,5-dihydro-2H-furo[2,3-g]indazole-7-carboxamide]",61
5,"Cc1cc(Cn2cc3c(n2)-c2c(oc(C(=O)NC[C@@H]4CCCO4)c2C)CC3)ccn1 [Example 79, 8-methyl-2-[(2-methylpyridin-4-yl)methyl]-N-[(2S)-tetrahydrofuran-2-ylmethyl]-4,5-dihydro-2H-furo[2,3-g]indazole-7-carboxamide]",58
6,"Cc1c(C(=O)NC[C@@H]2COCCO2)oc2c1-c1nn(C[C@H]3CCOC3)cc1CC2 [Example 112, N-[(2R)-1,4-dioxan-2-ylmethyl]-8-methyl-2-[(3R)-tetrahydrofuran-3-ylmethyl]-4,5-dihydro-2H-furo[2,3-g]indazole-7-carboxamide]",320
7,"Cc1c(C(=O)NC[C@@H]2CCCO2)oc2c1-c1nn(C[C@H]3COCCO3)cc1CC2 [Example 89, 2-[(2S)-1,4-dioxan-2-ylmethyl]-8-methyl-N-[(2S)-tetrahydrofuran-2-ylmethyl]-4,5-dihydro-2H-furo[2,3-g]indazole-7-carboxamide]",40
8,"Cc1ccc(Cn2cc3c(n2)-c2c(oc(C(=O)NC[C@@H]4COCCO4)c2C)CC3)c(C)n1 [Example 78, 2-[(2,6-dimethylpyridin-3-yl)methyl]-N-[(2R)-1,4-dioxan-2-ylmethyl]-8-methyl-4,5-dihydro-2H-furo[2,3-g]indazole-7-carboxamide]",190
9,"Cc1cccnc1Cn1cc2c(n1)-c1c(oc(C(=O)NC[C@@H]3COCCO3)c1C)CC2 [Example 63, N-[(2R)-1,4-dioxan-2-ylmethyl]-8-methyl-2-[(3-methylpyridin-2-yl)methyl]-4,5-dihydro-2H-furo[2,3-g]indazole-7-carboxamide]",60
10,"CC(=O)N1CC(F)(Cn2cc3c(n2)-c2c(oc(C(=O)NC[C@@H]4CCCO4)c2C)CC3)C1 [Example 165, 2-[(1-acetyl-3-fluoroazetidin-3-yl)methyl]-8-methyl-N-[(2S)-tetrahydrofuran-2-ylmethyl]-4,5-dihydro-2H-furo[2,3-g]indazole-7-carboxamide]",110
11,"O=C(NCc1ncco1)c1oc2c(c1C(F)(F)F)-c1nn(Cc3ccccn3)cc1C1(CCC1)C2 [Example 275, N-(1,3-Oxazol-2-ylmethyl)-2′-(pyridin-2-ylmethyl)-8′-(trifluormethyl)-2′,5′-dihydrospiro[cyclobutan-1,4′-furo[2,3-g]indazol]-7′-carboxamide]",141

# The next lines start with the values.
row,IC50 [nM],Compound
1,> 20000,"Cc1c(C(=O)NCC(C)(C)O)oc2c1-c1nn(Cc3ccccn3)cc1CC2 [Example 10, N-(2-hydroxy-2-methylpropyl)-8-methyl-2-(pyridin-2-ylmethyl)-4,5-dihydro-2H-furo[2,3-g]indazole-7-carboxamide]"
2,63,"C[C@@H]1Cc2oc(C(=O)NCc3cocn3)c(C(F)(F)F)c2-c2nn(C[C@H]3COCCO3)cc21 (single isomer, unassigned) [Example 261, (4R or 4S)-2-{[(2S)-1,4-dioxan-2-yl]methyl}-4-methyl-N-[(1,3-oxazol-4-yl)methyl]-8-(trifluoromethyl)-4,5-dihydro-2H-furo[2,3-g]indazole-7-carboxamide]"
3,240,"Cc1c(C(=O)NC[C@@H]2CCCO2)oc2c1-c1nn(Cc3ncc(F)cc3Cl)cc1CC2 [Example 58, 2-[(3-chloro-5-fluoropyridin-2-yl)methyl]-8-methyl-N-[(2S)-tetrahydrofuran-2-ylmethyl]-4,5-dihydro-2H-furo[2,3-g]indazole-7-carboxamide]"
4,496,"O=C(NCCc1nccs1)c1oc2c(c1C(F)(F)F)-c1nn(C[C@H]3COCCO3)cc1CC2 [Example 237, 2-[(2S)-1,4-Dioxan-2-ylmethyl]-N-[2-(1,3-thiazol-2-yl)ethyl]-8-(trifluormethyl)-4,5-dihydro-2H-furo[2,3-g]indazol-7-carboxamide]"
5,110,"Cc1c(C(=O)NC[C@@H]2CCCO2)oc2c1-c1nn(CC3(F)CN(S(C)(=O)=O)C3)cc1CC2 [Example 166, 2-{[3-fluoro-1-(methylsulfonyl)azetidin-3-yl]methyl}-8-methyl-N-[(2S)-tetrahydrofuran-2-ylmethyl]-4,5-dihydro-2H-furo[2,3-g]indazole-7-carboxamide]"
6,238,"Cc1c(C(=O)NC[C@@H]2COCCO2)oc2c1-c1nn(C[C@H]3COCCO3)cc1C(C(F)(F)F)C2 (mixture of isomers) [Example 265, (4±)-N-{[(2R)-1,4-dioxan-2-yl]methyl}-2-{[(2S)-1,4-dioxan-2-yl]methyl}-8-methyl-4-(trifluoromethyl)-4,5-dihydro-2H-furo[2,3-g]indazole-7-carboxamide]"
7,12,"CC1(C)CC[C@H](CNC(=O)c2oc3c(c2C(F)(F)F)-c2nn(C[C@H]4COCCO4)cc2CC3)O1 (single isomer, unassigned) [Example 223-1, N-{[(2R or 2S)-5,5-dimethyloxolan-2-yl]methyl}-2-{[(2S)-1,4-dioxan-2-yl]methyl}-8-(trifluoromethyl)-4,5-dihydro-2H-furo[2,3-g]indazole-7-carboxamide]"
8,154,"CC1CCC(CNC(=O)c2oc3c(c2C(F)(F)F)-c2nn(CC4COCCO4)cc2CC3)O1 (single isomer, unassigned) [Example 224-2, 2-{[(2S)-1,4-dioxan-2-yl]methyl}-N-{[(2S or 2R,5S or 5R)-5-methyloxolan-2-yl]methyl}-8-(trifluoromethyl)-4,5-dihydro-2H-furo[2,3-g]indazole-7-carboxamide]"
9,20,"Cc1c(C(=O)NC[C@@H]2COCCO2)oc2c1-c1nn(Cc3ncccc3Cl)cc1CC2 [Example 61, 2-[(3-chloropyridin-2-yl)methyl]-N-[(2R)-1,4-dioxan-2-ylmethyl]-8-methyl-4,5-dihydro-2H-furo[2,3-g]indazole-7-carboxamide]"
10,97,"Cc1c(C(=O)NC[C@@H]2CCCO2)oc2c1-c1nn(CC3CC3)cc1CC2 [Example 48, 2-(cyclopropylmethyl)-8-methyl-N-[(2S)-tetrahydrofuran-2-ylmethyl]-4,5-dihydro-2H-furo[2,3-g]indazole-7-carboxamide]"
11,27,"O=C(NC[C@@H]1CCCO1)c1oc2c(c1C(F)(F)F)-c1nn(Cc3ccccn3)cc1CC2 [Example 115, 2-(pyridin-2-ylmethyl)-N-[(2S)-tetrahydrofuran-2-ylmethyl]-8-(trifluoromethyl)-4,5-dihydro-2H-furo[2,3-g]indazole-7-carboxamide]"
